# From ChEMBL document CHEMBL5465560, “Selectivity Literature for EUbOPEN Chemogenomic Library” (2024)
# Key:
# [1] = target: Serine/threonine-protein kinase MRCK beta (Homo sapiens) (UniProt Q9Y5S2); assay: Selectivity interaction (KinomeScan (DiscoverX)) EUB0000618a CDC42BPB; details: at 10 µM
# [2] = target: Dual specificity testis-specific protein kinase 1 (Homo sapiens) (UniProt Q15569); assay: Selectivity interaction (KinomeScan (DiscoverX)) EUB0000618a TESK1; details: at 10 µM
# [3] = target: Casein kinase II subunit alpha' (Homo sapiens) (UniProt P19784); assay: Selectivity interaction (Kinase panel (DSF assay)) EUB0001558a CSNK2A2
# [4] = target: Protein arginine N-methyltransferase 8 (Homo sapiens, UniProt Q9NR22); details: at 10 µM
# [5] = target: T1, Mitogen-activated protein kinase kinase kinase 13 (Homo sapiens) (UniProt O43283); details: at 10 µM
# T1 sequence (whole entry): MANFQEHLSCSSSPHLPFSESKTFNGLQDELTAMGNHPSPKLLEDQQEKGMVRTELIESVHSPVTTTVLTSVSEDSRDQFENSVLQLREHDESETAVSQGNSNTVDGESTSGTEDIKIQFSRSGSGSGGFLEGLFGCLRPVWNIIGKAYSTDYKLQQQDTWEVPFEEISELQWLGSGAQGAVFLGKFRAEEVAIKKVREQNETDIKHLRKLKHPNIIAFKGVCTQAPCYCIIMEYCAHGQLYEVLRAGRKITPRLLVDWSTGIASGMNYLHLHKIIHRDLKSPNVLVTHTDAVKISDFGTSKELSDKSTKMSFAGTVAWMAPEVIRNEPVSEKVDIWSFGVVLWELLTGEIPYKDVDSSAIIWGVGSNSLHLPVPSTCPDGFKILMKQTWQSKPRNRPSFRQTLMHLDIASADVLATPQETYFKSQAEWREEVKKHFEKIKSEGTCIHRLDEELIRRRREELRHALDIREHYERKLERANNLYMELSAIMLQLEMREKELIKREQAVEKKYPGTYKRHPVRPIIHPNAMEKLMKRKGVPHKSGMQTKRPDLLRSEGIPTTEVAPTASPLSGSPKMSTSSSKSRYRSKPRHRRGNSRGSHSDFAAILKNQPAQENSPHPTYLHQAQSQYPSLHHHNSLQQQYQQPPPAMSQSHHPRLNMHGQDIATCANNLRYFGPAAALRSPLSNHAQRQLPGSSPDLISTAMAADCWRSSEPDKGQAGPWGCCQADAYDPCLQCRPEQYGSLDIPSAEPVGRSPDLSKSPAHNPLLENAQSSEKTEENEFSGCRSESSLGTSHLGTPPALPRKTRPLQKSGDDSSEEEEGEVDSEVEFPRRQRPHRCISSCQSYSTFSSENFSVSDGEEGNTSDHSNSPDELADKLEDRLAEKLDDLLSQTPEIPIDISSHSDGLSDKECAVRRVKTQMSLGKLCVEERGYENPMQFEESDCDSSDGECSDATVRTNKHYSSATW
# [6] = target: T2, Serine/threonine-protein kinase DCLK1 (Homo sapiens) (UniProt O15075); assay: Selectivity interaction (KinomeScan (DiscoverX)) EUB0000229b DCLK1; details: at 10 µM
# T2 sequence (whole entry): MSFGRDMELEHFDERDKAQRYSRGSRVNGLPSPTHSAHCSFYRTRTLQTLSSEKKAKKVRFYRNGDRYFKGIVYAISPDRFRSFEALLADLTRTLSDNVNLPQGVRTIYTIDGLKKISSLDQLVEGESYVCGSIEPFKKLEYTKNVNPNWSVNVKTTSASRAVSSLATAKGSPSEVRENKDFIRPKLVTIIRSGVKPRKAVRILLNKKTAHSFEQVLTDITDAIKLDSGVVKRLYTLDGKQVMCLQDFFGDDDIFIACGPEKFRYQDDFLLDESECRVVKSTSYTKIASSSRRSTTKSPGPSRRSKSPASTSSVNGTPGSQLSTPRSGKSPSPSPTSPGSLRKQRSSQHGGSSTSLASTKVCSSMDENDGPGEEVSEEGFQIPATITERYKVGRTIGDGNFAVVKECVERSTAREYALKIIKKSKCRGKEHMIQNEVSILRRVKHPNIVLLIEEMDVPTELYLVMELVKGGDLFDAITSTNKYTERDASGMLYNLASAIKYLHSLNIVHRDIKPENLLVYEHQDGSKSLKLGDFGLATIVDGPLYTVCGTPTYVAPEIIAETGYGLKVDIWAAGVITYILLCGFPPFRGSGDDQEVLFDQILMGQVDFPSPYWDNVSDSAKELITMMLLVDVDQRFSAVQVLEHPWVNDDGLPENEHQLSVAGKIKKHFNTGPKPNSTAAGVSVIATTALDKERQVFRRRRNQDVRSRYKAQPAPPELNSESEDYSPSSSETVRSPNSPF
# [7] = target: T3, Serine/threonine-protein kinase ULK2 (Homo sapiens) (UniProt Q8IYT8); assay: Selectivity interaction (KinomeScan (DiscoverX)) EUB0000092b ULK2; details: at 10 µM
# T3 sequence (whole entry): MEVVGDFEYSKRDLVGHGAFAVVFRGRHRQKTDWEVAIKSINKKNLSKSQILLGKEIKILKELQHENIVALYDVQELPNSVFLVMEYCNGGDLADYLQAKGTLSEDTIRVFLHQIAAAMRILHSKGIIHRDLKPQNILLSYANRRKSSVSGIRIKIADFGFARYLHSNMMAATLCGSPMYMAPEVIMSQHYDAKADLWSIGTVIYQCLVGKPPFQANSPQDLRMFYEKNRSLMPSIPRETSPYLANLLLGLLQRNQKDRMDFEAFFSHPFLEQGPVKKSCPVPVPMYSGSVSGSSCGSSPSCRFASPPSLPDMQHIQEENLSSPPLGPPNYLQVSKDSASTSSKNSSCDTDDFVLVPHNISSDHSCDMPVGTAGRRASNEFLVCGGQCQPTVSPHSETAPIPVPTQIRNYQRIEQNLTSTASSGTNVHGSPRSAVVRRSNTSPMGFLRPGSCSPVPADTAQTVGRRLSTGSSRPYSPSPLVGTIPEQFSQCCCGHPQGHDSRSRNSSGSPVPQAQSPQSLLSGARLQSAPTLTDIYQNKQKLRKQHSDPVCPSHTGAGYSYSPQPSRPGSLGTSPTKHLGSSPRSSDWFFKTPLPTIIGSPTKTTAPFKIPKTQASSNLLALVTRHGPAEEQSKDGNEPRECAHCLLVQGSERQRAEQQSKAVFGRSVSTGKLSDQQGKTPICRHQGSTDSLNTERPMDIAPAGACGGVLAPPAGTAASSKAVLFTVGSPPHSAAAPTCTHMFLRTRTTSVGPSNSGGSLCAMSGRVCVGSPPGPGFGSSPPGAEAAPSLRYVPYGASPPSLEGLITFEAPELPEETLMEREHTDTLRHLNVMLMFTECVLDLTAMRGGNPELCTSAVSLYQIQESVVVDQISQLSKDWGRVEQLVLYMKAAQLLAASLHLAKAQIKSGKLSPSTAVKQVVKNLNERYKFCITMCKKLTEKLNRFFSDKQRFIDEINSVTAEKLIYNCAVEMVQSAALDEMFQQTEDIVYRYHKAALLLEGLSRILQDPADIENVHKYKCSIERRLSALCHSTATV
# Sequence of Serine/threonine-protein kinase MRCK beta (Homo sapiens) (Q9Y5S2 whole entry): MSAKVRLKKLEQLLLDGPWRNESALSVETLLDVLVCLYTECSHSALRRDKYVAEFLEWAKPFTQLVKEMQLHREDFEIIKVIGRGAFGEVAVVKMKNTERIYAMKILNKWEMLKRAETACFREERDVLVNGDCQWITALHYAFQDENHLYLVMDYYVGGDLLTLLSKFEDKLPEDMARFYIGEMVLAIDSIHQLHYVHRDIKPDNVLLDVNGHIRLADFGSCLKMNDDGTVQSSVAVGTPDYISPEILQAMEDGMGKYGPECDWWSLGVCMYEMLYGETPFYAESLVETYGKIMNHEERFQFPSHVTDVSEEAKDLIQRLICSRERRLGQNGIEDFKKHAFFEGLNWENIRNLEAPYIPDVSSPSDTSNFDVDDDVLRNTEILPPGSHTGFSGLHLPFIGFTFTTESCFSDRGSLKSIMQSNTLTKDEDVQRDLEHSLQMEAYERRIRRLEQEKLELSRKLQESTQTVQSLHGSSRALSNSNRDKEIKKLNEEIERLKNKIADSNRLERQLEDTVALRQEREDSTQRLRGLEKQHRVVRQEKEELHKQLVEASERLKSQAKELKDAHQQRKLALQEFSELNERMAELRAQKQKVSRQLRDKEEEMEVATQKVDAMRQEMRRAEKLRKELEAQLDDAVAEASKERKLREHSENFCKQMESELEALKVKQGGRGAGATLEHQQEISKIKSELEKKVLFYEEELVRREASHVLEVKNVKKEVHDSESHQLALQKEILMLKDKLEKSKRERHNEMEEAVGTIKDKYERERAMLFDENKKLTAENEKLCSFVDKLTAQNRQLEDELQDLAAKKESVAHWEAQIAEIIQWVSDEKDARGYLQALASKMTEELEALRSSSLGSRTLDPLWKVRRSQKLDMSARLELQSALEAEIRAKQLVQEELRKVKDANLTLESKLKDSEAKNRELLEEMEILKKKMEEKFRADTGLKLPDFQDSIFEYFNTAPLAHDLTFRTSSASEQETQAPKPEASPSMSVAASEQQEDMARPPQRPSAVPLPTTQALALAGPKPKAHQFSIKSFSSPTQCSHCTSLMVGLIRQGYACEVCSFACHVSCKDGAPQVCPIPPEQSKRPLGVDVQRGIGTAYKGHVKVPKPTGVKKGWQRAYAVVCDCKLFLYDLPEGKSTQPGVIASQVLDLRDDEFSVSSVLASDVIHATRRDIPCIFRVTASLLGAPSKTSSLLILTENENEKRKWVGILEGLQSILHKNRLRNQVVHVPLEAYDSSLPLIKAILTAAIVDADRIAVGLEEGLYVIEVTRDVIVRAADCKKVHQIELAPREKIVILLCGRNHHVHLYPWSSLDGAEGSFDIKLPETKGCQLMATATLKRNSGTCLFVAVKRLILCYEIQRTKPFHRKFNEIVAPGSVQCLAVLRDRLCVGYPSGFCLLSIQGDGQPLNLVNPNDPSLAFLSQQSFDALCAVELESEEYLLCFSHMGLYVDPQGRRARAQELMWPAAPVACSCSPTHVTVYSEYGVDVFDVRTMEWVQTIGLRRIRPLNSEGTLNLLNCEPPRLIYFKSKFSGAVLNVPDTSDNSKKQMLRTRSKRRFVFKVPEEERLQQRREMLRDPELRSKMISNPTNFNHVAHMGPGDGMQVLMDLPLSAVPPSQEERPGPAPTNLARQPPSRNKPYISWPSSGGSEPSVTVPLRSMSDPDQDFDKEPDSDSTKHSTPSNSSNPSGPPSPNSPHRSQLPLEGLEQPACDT
# Sequence of Dual specificity testis-specific protein kinase 1 (Homo sapiens) (Q15569 whole entry, looked up): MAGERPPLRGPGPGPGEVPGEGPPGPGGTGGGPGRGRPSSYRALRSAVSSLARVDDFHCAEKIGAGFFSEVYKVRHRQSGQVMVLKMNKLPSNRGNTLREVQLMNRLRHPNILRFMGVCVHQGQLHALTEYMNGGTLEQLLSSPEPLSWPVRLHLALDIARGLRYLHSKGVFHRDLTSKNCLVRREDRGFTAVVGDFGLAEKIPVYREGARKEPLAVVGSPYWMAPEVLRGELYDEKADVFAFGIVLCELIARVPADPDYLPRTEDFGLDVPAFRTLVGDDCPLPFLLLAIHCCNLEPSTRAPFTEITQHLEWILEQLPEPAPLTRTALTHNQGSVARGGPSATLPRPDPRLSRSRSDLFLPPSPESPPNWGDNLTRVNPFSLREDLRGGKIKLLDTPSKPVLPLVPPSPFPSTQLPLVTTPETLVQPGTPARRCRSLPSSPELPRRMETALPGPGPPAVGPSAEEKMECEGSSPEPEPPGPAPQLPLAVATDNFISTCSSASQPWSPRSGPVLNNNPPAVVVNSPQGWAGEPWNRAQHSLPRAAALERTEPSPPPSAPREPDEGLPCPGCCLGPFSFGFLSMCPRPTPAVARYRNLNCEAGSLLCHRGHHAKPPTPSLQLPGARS
# Sequence of Casein kinase II subunit alpha' (Homo sapiens) (P19784 whole entry, looked up): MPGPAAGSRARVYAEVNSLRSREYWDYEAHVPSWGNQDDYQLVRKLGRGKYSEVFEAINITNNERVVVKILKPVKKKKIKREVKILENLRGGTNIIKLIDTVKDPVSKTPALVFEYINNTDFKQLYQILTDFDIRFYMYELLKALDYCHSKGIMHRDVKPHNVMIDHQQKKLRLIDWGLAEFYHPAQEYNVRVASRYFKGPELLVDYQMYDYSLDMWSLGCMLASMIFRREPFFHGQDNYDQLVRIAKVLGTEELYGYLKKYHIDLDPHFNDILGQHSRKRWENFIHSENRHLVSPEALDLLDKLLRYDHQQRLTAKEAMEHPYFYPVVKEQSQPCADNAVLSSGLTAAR
# Sequence of Protein arginine N-methyltransferase 8 (Q9NR22 2-394 limits assumed): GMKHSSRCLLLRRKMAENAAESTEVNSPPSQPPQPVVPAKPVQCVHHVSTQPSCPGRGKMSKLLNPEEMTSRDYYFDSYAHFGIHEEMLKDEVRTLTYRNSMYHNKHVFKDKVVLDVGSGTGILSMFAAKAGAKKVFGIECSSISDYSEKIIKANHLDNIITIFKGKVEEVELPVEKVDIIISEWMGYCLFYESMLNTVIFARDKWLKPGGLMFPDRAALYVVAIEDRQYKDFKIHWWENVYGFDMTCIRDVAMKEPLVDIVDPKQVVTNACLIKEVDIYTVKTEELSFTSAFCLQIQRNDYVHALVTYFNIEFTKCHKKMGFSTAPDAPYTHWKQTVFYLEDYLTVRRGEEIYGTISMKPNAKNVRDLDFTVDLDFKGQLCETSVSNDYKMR
smiles,measurement,setting,value
O[C@H]1CC[C@H](Nc2ncc3nc(Nc4c(F)cc(F)cc4F)n([C@H]4CCOC4)c3n2)CC1,% of control,[1],100%
same,% of control,[2],78%
CC(C)(O)[C@H](F)CN1Cc2cc(NC(=O)c3cnn4cccnc34)c(N3CCOCC3)cc2C1=O,dTM,[3],0.1 K
CNCCN1CCC(c2cc(CN(C)C(=O)c3cccc(Oc4ccccc4)c3)ccn2)CC1,% activity,[4],82%
Cc1cc([C@@H](C)Nc2ccccc2C(=O)O)c2nc(N3CCOCC3)cc(=O)n2c1 [AZD-6482],% of control,[5],100%
COc1cc(N(C)c2ccnc3ccc(C(F)(F)F)cc23)cc(OC)c1OC,% binding,[6],73%
CCC(=O)N1CCN(c2ccc(-n3c(=O)ccc4cnc5ccc(-c6cnc7ccccc7c6)cc5c43)cc2C(F)(F)F)CC1,% of control,[7],75%
